Earlier results in US20090269770A1, “METHODS FOR EVALUATION PROGNOSIS AND FOLLOW-UP OF DRUG TREATMENT OF PSYCHIATRIC DISEASES OR DISORDERS” (priority 2008, published 2009).

System: negative symptoms of schizophrenia
Conditions: non-serotonergic antidepressant add-on (Silver and Shmugliakov, 1998); cited from earlier work

SMILES: CNCCCC12CCC(c3ccccc31)c1ccccc12 [maprotaline]
- effect on negative symptoms: did not improve negative symptoms
